# Paper PMC6934184, “Selective DNA-PKcs inhibition extends the therapeutic index of localized radiotherapy and chemotherapy” (The Journal of Clinical Investigation, 2019)
# Target: T1, DYRK3 (Homo sapiens, UniProt O43781)
# T1 construct: purchased Thermo Fisher Scientific (Life Technologies) SelectScreen
# Experiment: SelectScreen Z'LYTE
# Assay type: biochemical
# In short: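 SelectScreen broad panel; activity (Z'LYTE, Adapta) plus binding formats. ATP: Km app for CSF1R Z'LYTE; 10 for CAMK1 Adapta. Readout = % per kinase.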
# T1 sequence (O43781 whole entry): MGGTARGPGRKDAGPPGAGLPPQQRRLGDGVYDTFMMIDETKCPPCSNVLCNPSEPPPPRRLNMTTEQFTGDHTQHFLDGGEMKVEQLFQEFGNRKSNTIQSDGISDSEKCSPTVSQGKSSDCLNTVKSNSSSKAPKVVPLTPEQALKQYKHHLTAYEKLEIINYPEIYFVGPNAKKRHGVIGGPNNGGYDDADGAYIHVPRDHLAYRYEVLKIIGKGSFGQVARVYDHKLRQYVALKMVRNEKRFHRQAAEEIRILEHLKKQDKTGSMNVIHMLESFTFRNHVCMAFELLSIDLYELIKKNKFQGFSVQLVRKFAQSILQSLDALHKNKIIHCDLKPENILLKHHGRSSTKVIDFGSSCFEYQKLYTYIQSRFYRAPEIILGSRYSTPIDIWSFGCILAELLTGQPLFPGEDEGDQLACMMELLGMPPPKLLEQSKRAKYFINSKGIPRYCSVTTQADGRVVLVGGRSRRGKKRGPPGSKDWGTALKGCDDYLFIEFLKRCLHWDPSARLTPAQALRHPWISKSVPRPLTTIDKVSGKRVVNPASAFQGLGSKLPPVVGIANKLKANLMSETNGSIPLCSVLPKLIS
compound,measurement,value
CN(C(=O)CN1CCOCC1)c1ccc2sc3c(-c4cccc5c(=O)cc(N6CC7CCC(C6)O7)oc45)cccc3c2c1 [NU5455],inhibition at 1 µM,2.6%
